Legend:
[1] = target: T1, proMMP9 (Homo sapiens, UniProt P14780); assay: Activation of proMMP9 by human fetal lung fibroblast (HFL-1) cultures (Western blot); type: cell-based; conditions: for Signal of 80 kD band (INT*mm^2): pAb-1246
T1 construct: endogenous in cells; host or cells: HFL-1 (ATCC CCL-153), TNFα and neutrophil elastase added
Procedure: Compound-α was assessed additionally for ability to block the maturation of proMMP9 to active MMP9 in cultures of human fetal lung fibroblasts (HFL-1, American Type Culture Collection #CCL-153). Unlike rat synoviocytes, HFL-1 cells were unable to process proMMP9 to the active form without addition of neutrophil elastase. […] Rather, the function of elastase in this assay may be to inactivate tissue inhibitors of matrix metalloproteinases (TIMPs) that repress endogenous pathways of MMP9 activation (Am J Respir Crit Care Med; 1999; 159:1138-46).
HLF-1 were maintained in monolayer culture in DMEM with 10% FCS and were used between passage numbers 5-15. HLF-1 were embedded in collagen gels as described for rat SCW synoviocytes (vida supra). Half mL gels containing 0.4 million cells were dislodged into wells of 12 well Costar plates containing 1 mL/well of DMEM adjusted to contain 0.05% BSA and 100 ng/mL human TNFα (R&D Systems Cat #210-TA/CF). After overnight culture (37° C. and 5% CO2) wells were adjusted to contain an additional 0.5 mL of DMEM containing 0.05% BSA and with or without 13.2 μM Compound-α (final concentration was 3.3 μM Compound-α). Next, cultures were adjusted to contain 30 nM human elastase (Innovative Research). The plates were cultured an additional 72 hrs, at which time MMP9 secreted into the conditioned media was bound to gelatin-sepharose and evaluated by Western blot analysis as described for the rat synoviocyte cultures (vida supra). mAb-51/82 detected three forms of MMP9 in HFL-1 cultures.
A second experiment was performed to determine if the 80 kD form was mature active MMP9 and to determine the potency of Compound-α as an inhibitor of MMP9 maturation in this assay. HFL-1 cells embedded in collagen gels were cultured as described above in the presence of TNFα overnight and the cultures were then adjusted to contain 30 nM elastase and graded concentrations of Compound-α for an additional 72 hrs at which time MMP9 secreted into the conditioned media was bound to gelatin-sepharose and evaluated by Western blot analysis for active MMP9 using pAb-1246 raised against the N-terminal neoepitope of active MMP9 (Table 5). In the absence of Compound-α, pAb-1246 readily detected MMP9 with an electrophoretic mobility of approximately 80 kD. […] Inhibition occurred over a dose range with an IC50 of approximately 0.3 μM Compound-α.

[2] = target: T2, MMP9 mediated gelatinase activity (Rattus norvegicus, UniProt P50282); assay: In situ zymography of gelatinase activity in livers of SCW-induced rats dosed with compound; type: in vivo; conditions: for Intensity (RLU × 10^6), Mean / Intensity (RLU × 10^6), Rat 1 / Intensity (RLU × 10^6), Rat 2 / Intensity (RLU × 10^6), Rat 3: Day 25-28, liver
T2 construct: from tissue; host or cells: frozen liver sections, female Lewis rats
From the text: In situ zymography provides an alternative approach to assess active MMP9 in tissues (Frederiks). Tissue sections are overlain with fluorescene-conjugated gelatin wherein the conjugation is sufficiently dense to cause the fluorescene to be dye-quenched (DQ). Proteolytic degradation of the DQ-gelatin releases the fluorescene from the quenching effect giving rise to bright green fluorescence at the site of degradation. Because in situ zymography requires the use of frozen sections, calcified tissues are problematic. However, an additional feature of the SCW arthritis model is the development of hepatic granulomatous disease (J Immunol; 1986; 137:2199-2209), and MMP9 reportedly plays a role in macrophage recruitment in the granulomas response to mycobacteria (Infect Immun; 2006; 74:6135-6144). Consequently, granulomatous livers from SCW-treated rats were assessed for active MMP9 by in situ zymography.
As described above, Female Lewis (LEW/N) rats, 5-6 weeks of age (80-100 g) were injected (i.p.) with saline or SCW PG-PS. On day 28, when the granulomatous response was well established, animals were sacrificed and livers were frozen in OCT cryo-sectioning medium and […] sections were cut on a Cryome HM 500 M cryotome and mounted on glass microscope slides. Sections were air dried briefly. MMP9 was confirmed as the source of the gelatinase activity in the liver by treating liver sections with monoclonal antibodies directed against the active site of the two major gelatinases MMP9 and MMP2. Liver sections overlain with 50 μL of 100 μg/mL neutralizing mouse monoclonal antibodies directed against MMP9 (Calbiochem, clone 6-6B), or MMP2 (Millipore, clone CA-4001), or with PBS for 1 hr at room temperature. Tissues were rinsed once with PBS, blotted, and briefly air dried and then overlain with DQ-gelatin (Invitrogen) dissolved to 1 mg/mL in deionized water and then diluted 1:10 in 1% wt/vol low gelling point agarose type VII (Sigma) in PBS. The sections were covered with coverslips, incubated in the dark at room temperature for 20 min, and imaged on an Olympus IX80 inverted microscope fitted with fluorescence optics, using SlideBook™ imaging software (Intelligent Imaging Innovations, Inc., Philadelphia, Pa.; version 5.0). Fluorescence intensity was determined (Table 8). When compared to a saline-treated rat, gelatinase activity was abundantly expressed in granulomatous liver sections obtained from a rat with SCW arthritis.
Next, liver in situ zymography was used to assess the relative presence of active MMP9 in rats dosed with vehicle vs. Compound-α. Female Lewis (LEW/N) rats, 5-6 weeks of age (80-100 g) were injected (i.p.) with saline or SCW PG-PS. Commencing on day 25, randomized groups of rats (n=3 rats/group) received vehicle or 20 or 50 mg/kg Compound-α BID by oral gavage. Vehicle consisted of an aqueous mixture containing 2% (v:v) N-methylpyrrolidone, 5% (v:v) glycerine, and 20% (w:v) captisol. Treatment continued daily through the morning of day 28. Four hrs after the AM dose on day 28, rats were sacrificed and livers assessed for active MMP9 by in situ zymography (Table 9). Gelatinase activity was increased markedly in SCW-induced rats, but activity was reduced by approximately 80% in animals treated with 50 mg/kg Compound-α.

[3] = 3.3 μM, 30 nM elastase, final 72 hrs, mAb-L51/82

T2 sequence (P50282 108-708): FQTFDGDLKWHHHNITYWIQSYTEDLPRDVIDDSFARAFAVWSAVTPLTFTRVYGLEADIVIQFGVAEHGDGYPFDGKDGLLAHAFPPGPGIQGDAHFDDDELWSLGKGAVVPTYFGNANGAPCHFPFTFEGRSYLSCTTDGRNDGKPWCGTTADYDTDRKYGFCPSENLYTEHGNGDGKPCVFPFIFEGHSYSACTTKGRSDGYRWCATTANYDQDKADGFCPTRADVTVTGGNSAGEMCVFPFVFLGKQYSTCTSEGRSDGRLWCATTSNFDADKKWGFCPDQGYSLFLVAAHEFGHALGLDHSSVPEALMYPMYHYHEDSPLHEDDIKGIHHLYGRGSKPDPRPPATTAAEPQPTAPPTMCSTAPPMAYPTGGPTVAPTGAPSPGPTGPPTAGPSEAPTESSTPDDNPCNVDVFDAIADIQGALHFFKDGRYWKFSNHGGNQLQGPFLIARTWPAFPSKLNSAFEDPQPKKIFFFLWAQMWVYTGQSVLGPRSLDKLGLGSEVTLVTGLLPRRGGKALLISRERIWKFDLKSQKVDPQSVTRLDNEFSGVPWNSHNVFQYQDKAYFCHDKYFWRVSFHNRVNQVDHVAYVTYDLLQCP
T1 sequence (P14780 20-707 limits assumed): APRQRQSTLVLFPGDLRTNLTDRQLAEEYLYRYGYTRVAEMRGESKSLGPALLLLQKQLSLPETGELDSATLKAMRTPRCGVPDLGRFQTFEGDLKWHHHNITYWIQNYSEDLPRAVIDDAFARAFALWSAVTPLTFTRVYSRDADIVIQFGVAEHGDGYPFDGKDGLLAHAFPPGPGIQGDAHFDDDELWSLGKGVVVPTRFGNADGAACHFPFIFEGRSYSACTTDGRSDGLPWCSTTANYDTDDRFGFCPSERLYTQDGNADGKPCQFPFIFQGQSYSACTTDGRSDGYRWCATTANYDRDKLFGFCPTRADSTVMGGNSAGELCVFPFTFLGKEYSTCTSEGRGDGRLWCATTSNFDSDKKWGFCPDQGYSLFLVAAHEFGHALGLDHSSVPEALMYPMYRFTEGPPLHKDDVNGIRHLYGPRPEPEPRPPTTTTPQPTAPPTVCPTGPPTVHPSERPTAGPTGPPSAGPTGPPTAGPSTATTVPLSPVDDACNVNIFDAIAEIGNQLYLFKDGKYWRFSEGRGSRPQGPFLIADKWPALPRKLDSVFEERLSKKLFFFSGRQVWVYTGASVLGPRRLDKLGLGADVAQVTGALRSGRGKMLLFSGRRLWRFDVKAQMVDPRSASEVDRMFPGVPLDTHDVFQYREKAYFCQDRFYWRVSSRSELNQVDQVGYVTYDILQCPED

In the case of `Cc1nc(C)c(-c2csc(Nc3cc(S(N)(=O)=O)ccc3OC(C)C)n2)s1` [Compound-α, 3-(2′,4′-Dimethyl-[4,5′]bithiazolyl-2-ylamino)-4-isopropoxy-benzenesulfonamide.HBr], the “Signal of 80 kD band (INT*mm^2)” value ([1]; 0.12 μM, 30 nM elastase, final 72 hrs) is reported as 168211 INT*mm^2, the “Signal of 80 kD band (INT*mm^2)” value ([1]; 0.37 μM, 30 nM elastase, final 72 hrs) is reported as 45996 INT*mm^2 and the “Signal of 80 kD band (INT*mm^2)” value ([1]; 1.1 μM, 30 nM elastase, final 72 hrs) is reported as 1747 INT*mm^2. For the same compound, the “Percent of total signal, 80 kD” value [1, 3] was 7%, the “Percent of total signal, 86 kD” value [1, 3] was 47% and the “Percent of total signal, 100 kD” value [1, 3] was 46%. For the same compound, the “Signal (INT*mm^2), 80 kD” value [1, 3] was 6092 INT*mm^2, the “Signal (INT*mm^2), 86 kD” value [1, 3] was 43147 INT*mm^2 and the “Signal (INT*mm^2), 100 kD” value [1, 3] was 42107 INT*mm^2. The “Signal (INT*mm^2), Total” value [1, 3] was 91346 INT*mm^2, the “Signal of 80 kD band (INT*mm^2)” value ([1]; 3.3 μM, 30 nM elastase, final 72 hrs) was 152 INT*mm^2 and the “Processing of MMP9 forms by HFL-1 cells” value ([1]; 3.3 μM, mAb-L51/82) was “the formation of the 80 kD form was suppressed”. The “Signal of 80 kD band (INT*mm^2)” value ([1]; 10 μM, 30 nM elastase, final 72 hrs) was 0 INT*mm^2, the “Intensity (RLU × 10^6), Mean” value ([2]; 20 mg/kg BID oral) was 55.2 RLU × 10^6 and the “Intensity (RLU × 10^6), Rat 1” value ([2]; 20 mg/kg BID oral) was 43.0 RLU × 10^6. For the same compound, the “Intensity (RLU × 10^6), Rat 2” value ([2]; 20 mg/kg BID oral) was 69.0 RLU × 10^6, the “Intensity (RLU × 10^6), Rat 3” value ([2]; 20 mg/kg BID oral) was 53.7 RLU × 10^6 and the “Reduction of liver gelatinase activity” value ([2]; 50 mg/kg BID oral, Day 25-28) was “approximately 80%”. For the same compound, the “Intensity (RLU × 10^6), Mean” value ([2]; 50 mg/kg BID oral) was 11.1 RLU × 10^6, the “Intensity (RLU × 10^6), Rat 1” value ([2]; 50 mg/kg BID oral) was 3.2 RLU × 10^6 and the “Intensity (RLU × 10^6), Rat 2” value ([2]; 50 mg/kg BID oral) was 25.6 RLU × 10^6. The “Intensity (RLU × 10^6), Rat 3” value ([2]; 50 mg/kg BID oral) was 4.5 RLU × 10^6.

Source: US20120129897A1, “BIS HETEROARYL INHIBITORS OF PRO-MATRIX METALLOPROTEINASE ACTIVATION” (priority 2010, published 2012)
